From publication PMC9227578, “Insight into the Molecular Mechanism for the Discrepant Inhibition of Microcystins (MCLR, LA, LF, LW, LY) on Protein Phosphatase 2A” (Toxins, 2022) come the findings set out here.

For the assay, the system named is PP2A. Nature of the assay: colorimetric protein phosphatase (PP2A) inhibition assay. Type of assay: biochemical. The protocol:
The biological toxicity of the typical MCs was evaluated by a colorimetric protein phosphatase inhibition assay modified by Zong et al.. First, PP2A was diluted to 5 U/mL with a buffer solution (50 mM Tris-HCl pH 7.4, 2.0 mM dithiothreitol, 1 mM MnCl2) and 1.0 g/L bovine serum albumin. Then, 10 μL of PP2A and 100 μL of test samples were mixed in a 96-well polystyrene microplate. With gentle shaking, the microtiter plates were kept at 25.0 °C for 15 min, and 90 μL p-nitrophenyl disodium orthophosphate (5 mM) was added. After 1 h, the absorbances at 405 nm were measured in a microplate reader. The inhibition of the test samples on PP2A was calculated by the formula of IPP2A (%) = (Acontrol − Asample)/Acontrol × 100%. Acontrol and Asample were the absorbance of the reference sample ([…]) and the test sample at 405 nm, respectively.
On to MCLF, for which the “inhibition sequence on PP2A” value is on record as “MCLR > MCLW > MCLA > MCLF > MCLY”. For MCLR, the “inhibition effect on PP2A” value is “much higher inhibition effect than other MCs” and the “inhibition sequence on PP2A” value is on record as “MCLR > MCLW > MCLA > MCLF > MCLY”. With MCLA, the “inhibition sequence on PP2A” value is listed as “MCLR > MCLW > MCLA > MCLF > MCLY”. On to MCLY, for which the “inhibition effect on PP2A” value is “lower inhibition” and the “inhibition sequence on PP2A” value is “MCLR > MCLW > MCLA > MCLF > MCLY”.
